From PubChem BioAssay AID2060502 (Molecular Pharmacology Branch, DTP, NCI, 2025)

Tested on: 885724-159-R-J1-PDC complex spheroid viability
Assay: Anticancer human tumor 885724-159-R-J1-PDC patient-derived pancreatic adenocarcinoma cell line growth inhibition [GQUAD]
Conditions: for IC50: curve of first compound; for viability, T/C: stronger effect = lower value
Description: DNA G-quadruplex Stabilizer Agents in Combinations in Complex Spheroids
A high-throughput screen of multi-cell type tumor spheroids was designed to identify active combinations of DNA G-quadruplex stabilizer agents and targeted small molecules. Complex spheroids include a stromal component modeled by human endothelial cells (HUVEC) and fibroblasts modeled by human mesenchymal stem cells (MSCs). The concentration ranges selected for each drug and investigational agent were based upon clinically achievable concentrations if the clinical Cmax of the agent was known.
Compounds. The drugs and investigational agents: pidnarulex (CX-5461; NSC782164), APTO-253 (NSC789042), BRACO-19 (NSC847499), peposertib (NSC802822), ceralasertib (NSC780249), elimusertib (NSC800525), camonsertib (NSC841442), AZD-1390 (NSC803789), olaparib (NSC753686), talazoparib (NSC767125), ART-558 (NSC835418), sotorasib (NSC818433), MRTX-1133 (NSC836407), SN-38 (NSC673596), topotecan (NSC609699), etoposide (NSC141540), doxorubicin (NSC123127), gemcitabine (NSC613327), 5-fluorouracil (NSC19893), paclitaxel (NSC125973), vemurafenib (NSC761431), panobinostat (NSC761190), R-306465 (JNJ-16241199; NSC773264), adavosertib (NSC754352), TP-3654 (NSC805149), carboplatin (NSC241240), KSQ-4279 (NSC840948), and staurosporine (NSC755774) were obtained from the National Cancer Institute (NCI) Developmental Therapeutics Program Chemical Repository (34). The FDA-approved anticancer drug set is available from the NCI Developmental Therapeutics Program. […] The stock solutions were prepared in dimethyl sulfoxide (DMSO, Sigma-Aldrich, St. Louis, MO, cat. D2650) at 800-fold the tested concentration and stored at -70 degrees C prior to their use. All drugs and investigational agents were tested over a range starting from a high concentration at or near the clinical Cmax and decreasing in half-log increments. If the clinical Cmax for an agent had not been determined, the highest concentration tested was 10 microM.
2.3 Cell Culture. All cells were maintained in an incubator at 37 degrees C and 5% CO2 with 95% humidity. The PDC lines were cultured according to standard operating procedures established by the NCI PDMR. All PDCs were thawed and cultured in Matrigel-coated flasks prepared with a working solution of 1X Ham's F-12 nutrient mix, without supplementation (Invitrogen, cat. 11765054), 100 U/mL penicillin-streptomycin (Invitrogen, cat. 15140122), and 2.5% Matrigel (Corning Inc., cat. 354248) for the first three passages. The 857933-349-R-J2-PDC line was cultured in 6C/Colon 1B media, which includes advanced DMEM/F-12 (Thermo Fisher Scientific, cat. 12634028), 10 mM HEPES (Thermo Fisher Scientific, cat. 15630080), 1X GlutaMAX supplement (Thermo Fisher Scientific, cat. 35050061), 0.1 mg/mL primocin (InvivoGen, cat. ant-pm-2), 10% defined fetal bovine serum, heat inactivated (HyClone Laboratories Inc., cat. SH30070.03HI), 50% L-WRN conditioned media (ATCC, cat. CRL-3276), 1.25 mM N-Acetyl-L-cysteine (Sigma-Aldrich, cat. A9165), 10 mM nicotinamide (Sigma-Aldrich, cat. N0636), 1X B-27 supplement (Thermo Fisher Scientific, cat. 17504044), 1X N-2 supplement (Thermo Fisher Scientific, cat. 17502048), 10 microM Y-27632 dihydrochloride (Tocris Bioscience, cat. 1254), and 50 ng/mL human EGF recombinant protein (Thermo Fisher Scientific, cat. PHG0311). The 485176-168-R4-J1-PDC line was cultured in Panc media, which includes all 6C/Colon 1B media components plus 100 ng/mL human FGF-10 (Thermo Fisher Scientific, cat. 100-26), 500 nM SB-431542 (Selleckchem, cat. S1067), and gastrin (Tocris, cat. 3006).
[…]
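Note: spheroids exposed to agents for seven days before readout.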
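Throughout, for viability, T/C: percent of vehicle control viability where 100% = DMSO wells.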

## C=CC(=O)N1CCN(c2nc(=O)n(-c3c(C)ccnc3C(C)C)c3nc(-c4c(O)cccc4F)c(F)cc23)C(C)C1 (configuration not stated) + CN(C)c1ccc(Nc2c3ccc(NC(=O)CCN4CCCC4)cc3nc3cc(NC(=O)CCN4CCCC4)ccc23)cc1
Second compound 0.0316 µM
  IC50: > 10 µM
Second compound 0.1 µM
  IC50: > 10 µM
Second compound 0.316 µM
  IC50: > 10 µM
Second compound 1 µM
  IC50: > 10 µM
Second compound 3.16 µM
  IC50: > 10 µM
Second compound 10 µM
  IC50: > 10 µM
Second compound 0.0316 µM, first compound 0.0316 µM
  viability, T/C: 98.5%
Second compound 0.0316 µM, first compound 0.1 µM
  viability, T/C: 101%
Second compound 0.0316 µM, first compound 0.316 µM
  viability, T/C: 96.2%
Second compound 0.0316 µM, first compound 1 µM
  viability, T/C: 93.4%
Second compound 0.0316 µM, first compound 3.16 µM
  viability, T/C: 103%
Second compound 0.0316 µM, first compound 10 µM
  viability, T/C: 95.6%
Second compound 0.1 µM, first compound 0.0316 µM
  viability, T/C: 101%
Second compound 0.1 µM, first compound 0.1 µM
  viability, T/C: 106%
Second compound 0.1 µM, first compound 0.316 µM
  viability, T/C: 96.5%
Second compound 0.1 µM, first compound 1 µM
  viability, T/C: 98.5%
Second compound 0.1 µM, first compound 3.16 µM
  viability, T/C: 107%
Second compound 0.1 µM, first compound 10 µM
  viability, T/C: 87.5%
Second compound 0.316 µM, first compound 0.0316 µM
  viability, T/C: 90.5%
Second compound 0.316 µM, first compound 0.1 µM
  viability, T/C: 95.3%
Second compound 0.316 µM, first compound 0.316 µM
  viability, T/C: 82.6%
Second compound 0.316 µM, first compound 1 µM
  viability, T/C: 82.5%
Second compound 0.316 µM, first compound 3.16 µM
  viability, T/C: 103%
Second compound 0.316 µM, first compound 10 µM
  viability, T/C: 89.2%
Second compound 1 µM, first compound 0.0316 µM
  viability, T/C: 86.2%
Second compound 1 µM, first compound 0.1 µM
  viability, T/C: 79.4%
Second compound 1 µM, first compound 0.316 µM
  viability, T/C: 70.6%
Second compound 1 µM, first compound 1 µM
  viability, T/C: 79.3%
Second compound 1 µM, first compound 3.16 µM
  viability, T/C: 85.3%
Second compound 1 µM, first compound 10 µM
  viability, T/C: 82.3%
Second compound 3.16 µM, first compound 0.0316 µM
  viability, T/C: 67%
Second compound 3.16 µM, first compound 0.1 µM
  viability, T/C: 74.1%
Second compound 3.16 µM, first compound 0.316 µM
  viability, T/C: 84.4%
Second compound 3.16 µM, first compound 1 µM
  viability, T/C: 69.4%
Second compound 3.16 µM, first compound 3.16 µM
  viability, T/C: 83.8%
Second compound 3.16 µM, first compound 10 µM
  viability, T/C: 79.6%
Second compound 10 µM, first compound 0.0316 µM
  viability, T/C: 64.8%
Second compound 10 µM, first compound 0.1 µM
  viability, T/C: 76%
Second compound 10 µM, first compound 0.316 µM
  viability, T/C: 85.2%
Second compound 10 µM, first compound 1 µM
  viability, T/C: 84.6%
Second compound 10 µM, first compound 3.16 µM
  viability, T/C: 87.6%
Second compound 10 µM, first compound 10 µM
  viability, T/C: 73.3%
